Measured values from the METLIN SMRT retention time set (Domingo-Almenara et al. 2019).

Assay: gradient 5% acetonitrile 3 min, to 50% in 2 min, to 85% in 15 min, held 3 min, 100 µL/min
Conditions: column: Zorbax Extend-C18 2.1 x 50 mm; eluents: water / acetonitrile, 0.1% formic acid
Summary of the method: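 Pure standards were analyzed in mixtures of ~100 molecules using HPLC coupled to a quadrupole time-of-flight mass spectrometer, in both positive and negative ionization mode. Separation used a Zorbax Extend-C18 column (2.1 × 50 mm, 1.8 μm) at 100 μL/min, with water and acetonitrile each containing 0.1% formic acid. Dead and dwell volumes were 40 μL and 900 μL, and data were collected over 3 months. Retention time was read from computationally picked adduct peaks, each inspected manually.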

Row | SMILES | RP-LC retention time [s]
1 | Cc1nc(C)c(-c2ccc(=O)n(CCNC(=O)c3ccno3)n2)s1 | 585
2 | CN(C)c1cc(N2CCCC(NC(=O)c3cccn3C)C2)ncn1 (stereo unspecified) | 571
3 | COc1ccc(C)cc1NC(=O)N1CCC(c2nc(C(=O)N3CCCC3)c(C)o2)CC1 | 865
4 | Cc1cc(-c2nnc(-c3ccccc3)o2)c(C)n1CC(=O)NCc1cccc(Cl)c1 | 973
5 | CN1CCN(C(CNC(=O)c2ccc3nsnc3c2)c2ccc(F)cc2)CC1 (stereo unspecified) | 567
6 | Cc1ccc(C2=NC3(CCN(C(=O)Cc4cccs4)CC3)ON2)cc1 | 829
7 | Cc1cccc(-c2nc(N)n(C(=O)C(C)C)n2)c1 | 970
8 | CCOCCCNC(=O)N1CC(Oc2cccc(-c3nc(C)no3)c2)C1 | 735
9 | Cc1ccccc1Cn1c2ccccc2c2cnn(CC(=O)NCc3ccco3)c(=O)c21 | 975
10 | Cc1ccsc1C(=O)Nc1cnn(-c2ncncc2N2CCC(C)CC2)c1 | 918
11 | O=C(NC1CCN(c2cc(-c3ccc(F)cc3)[nH]n2)C1)c1ccc(F)cc1Cl (stereo unspecified) | 740
12 | O=S(=O)(c1ccc(Cl)cc1)N1CCc2nc(-c3ccccc3)ncc2C1 | 1080
13 | O=C1Nc2cc(C(=O)N3CCN(Cc4ccc5c(c4)OCO5)CC3)ccc2N2CCCCC12 (stereo unspecified) | 624
14 | Cc1nnc(N2CCCC(C(=O)NCCc3cccs3)C2)c2nn(-c3ccccc3)c(C)c12 (stereo unspecified) | 720
15 | O=C1COc2ccccc2N1Cc1nc(-c2ccccc2Cl)no1 | 995
16 | CCn1cc2c3c(cccc31)CN(C(=O)Nc1ccc3c(c1)OCCO3)CC2 | 908
17 | COc1ccc2c(c1)C1(CCN(C(=O)NC3CCCCC3)C1)C(=O)N2C (stereo unspecified) | 778
18 | CCc1nc2cccnc2n1CCN1CCN(C(=O)Nc2ccccc2Br)CC1 | 641
19 | NCC(=O)c1cccc2ccc[n+]([O-])c12 | 678
20 | Cn1cccc1-c1cc2n(n1)CCC(=O)N2CCCC(=O)NCCCN1CCCCCC1 | 607
21 | O=C(NCC1CCCO1)c1cccn1Cc1noc(-c2ccc(Cl)cc2)n1 (stereo unspecified) | 943
22 | CCOC(=O)c1cccc(NC2=NS(=O)(=O)C(c3ccc(F)cc3)=C2C)c1 | 927
23 | CC(=O)Nc1ccc(NC(=O)c2cccc(N3C(=O)NC4CC3(C)Oc3ccc(Cl)cc34)c2)cc1 (stereo unspecified) | 754

Row | SMILES | RP-LC retention time [s]
24 | Cc1cccc(NS(=O)(=O)c2cc3n(c2)CCN(CC(C)C)C3=O)c1 | 808
25 | CC(C)CCN1N=C(C(=O)N2CCOCC2)S(=O)(=O)c2ccc(Cl)cc21 | 957
26 | Cn1c(=O)c2c(C(=O)NCC3CCN(Cc4ccc(Cl)cc4)CC3)cc(=O)n(C)c2n(C)c1=O | 626
27 | COc1ccc(C)cc1NC(=O)Cn1nc(C(=O)N2CCN(C)CC2)cc1C | 583
28 | CCOC(=O)c1cnc(NC(=O)c2ccc(S(=O)(=O)N3CCCCC3)cc2)s1 | 882
29 | Cc1ccccc1CN1N=C(C(=O)N2CCC(C)CC2)S(=O)(=O)c2ccccc21 | 1050
30 | Cc1nc2cc(-c3noc(Cc4ccccc4Cl)n3)ccc2o1 | 1030
31 | COc1ccc(N2CCN(c3cc(SCC(=O)Nc4ccc(C)c(Cl)c4)ncn3)CC2)cc1 | 1100
32 | CC(C)CN1CCn2cc(S(=O)(=O)Nc3cccc(F)c3)cc2C1=O | 786
33 | CCc1ccc(S(=O)(=O)N2CCCC2c2nc(-c3cccc(C)c3)no2)cc1 (stereo unspecified) | 1260
34 | CS(=O)(=O)N1CCC(C(=O)Nc2ccc(Oc3ccccc3)cc2)Oc2ccccc21 (stereo unspecified) | 1030
35 | O=C(NCc1ccc2c(c1)OCO2)C1CCN(C(=O)c2ccc(Cl)cc2)CC1 | 766
36 | O=C(CSc1nc(=O)n2cc(Cl)ccc2n1)Nc1ccc(OC(F)(F)F)cc1 | 820
37 | O=C(Cc1csc2nc(-c3ccccc3)cn12)N1CCc2ccccc2C1 | 826
38 | Cc1cccc(N2CCN(C(=O)c3cn4c(n3)CCCC4)CC2)c1C | 690
39 | O=C(CCCc1ccccc1)Nc1cccn2c(C3CCC3)nnc12 | 901
40 | CCOC(=O)c1c(NC(=O)CN2CCN(c3ncccn3)CC2)sc2c1CCC2 | 1080
41 | COCCC(=O)N1CCN(c2nc(CN3CCOCC3)cs2)CC1 | 686
42 | O=C1NC2(CCN(C(=O)Nc3ccc(F)cc3)CC2)N=C1c1cccc(Cl)c1 | 872
43 | O=C(Cn1ncc2c(N3CCN(c4ccccn4)CC3)ncnc21)Nc1ccc(C(F)(F)F)cc1 | 669
44 | CC(=O)Nc1ccc(CCc2nc3ccc(C(=O)NCc4ccco4)cc3[nH]2)cc1 | 606
45 | CCCN1C(=O)COc2ccc(-c3noc(-c4cccc(OC)c4)n3)cc21 | 1190
46 | CC(C)Cn1cc(CCNC(=O)c2ccc(C(F)(F)F)cc2)c2cccnc21 | 940

Row | SMILES | RP-LC retention time [s]
47 | COc1ccc(NC(=O)c2cc(C)n3nc(-c4ccco4)cc3n2)cc1OC | 933
48 | Cc1noc(C)c1CCC(=O)N1CCN(c2c(C)nn(C3CCS(=O)(=O)C3)c2C)CC1 (stereo unspecified) | 650
49 | COc1cccc(C(=O)Nc2c(-c3ccc(F)cc3)nc3ccccn23)c1OC | 667
50 | O=C(c1n[nH]c2ccccc12)N1CCC[C@H]1c1nc(-c2ccccc2)n[nH]1 | 683
51 | O=C(Cc1ccccc1Cl)NCC1CCN(C(=O)Oc2ccccc2)CC1 | 704
52 | Cc1noc(-c2ccc(=O)n(CC(=O)Nc3ccccc3)c2)n1 | 667
53 | CCc1nnc2ccc(-c3noc(Cc4cccc(Cl)c4)n3)cn12 | 896
54 | CC(C)CC(=O)NCC(c1ccccc1Cl)c1c[nH]c2ccccc12 (stereo unspecified) | 984
55 | O=C(Cc1csc2nc(-c3cccc(Br)c3)cn12)Nc1ccc(F)cc1 | 959
56 | O=C(NC1CCCCCCC1)C1CCN(C(=O)c2ccc(F)cc2)CC1 | 858
57 | CC(=O)Nc1ccc(C2(C(=O)NCc3ccc(F)cc3Cl)CCC2)cc1 | 804
58 | COC(=O)c1sccc1NC(=O)N1CCCC1c1noc(COc2ccc(F)cc2)n1 (stereo unspecified) | 1040
59 | Cc1ccc(C)c(NC(=O)NCCn2c(-c3ccncc3)nc3cccnc32)c1 | 638
60 | CCCc1noc(-c2cccnc2-n2cnc(C(=O)Nc3cc(C)cc(C)c3)c2)n1 | 1040
61 | Cc1nc(-c2ccc3c(c2)CCN3C(=O)Cc2ccsc2)cs1 | 980
62 | Cc1cccc(CNC(=O)CN2CCN(Cc3ccc(F)cc3Cl)C2=O)c1 | 889
63 | Cc1noc(C)c1-c1ccc(S(=O)(=O)N2CCOCC2)cc1 | 807
64 | O=C(Nc1ccc(N2CCCCC2=O)cc1)c1cccc2ccccc12 | 722
65 | O=C(c1ccco1)N1CCC(n2c(C3CCCC3)nc3cccnc32)C1 (stereo unspecified) | 625
66 | CC(C)(C)CC(=O)N1CCCC(CCc2nnc(C3CCOCC3)o2)C1 (stereo unspecified) | 758
67 | CC(C)OCCCNC(=O)C1CC(=O)N(c2n[nH]c3cc(Br)ccc23)C1 (stereo unspecified) | 690
68 | CCNc1nc(NC(C)(C)C)nc(-n2cnc(SC)n2)n1 | 873
69 | Cc1nc(C(=O)Nc2ccc(F)cc2C)c(C)o1 | 889

Row | SMILES | RP-LC retention time [s]
70 | COCCn1cc(CCNC(=O)c2cncc(Br)c2)c2cccnc21 | 678
71 | Cc1cc(N2CCN(C)CC2)nc2ccc(NC(=O)NC3CCCC3)cc12 | 568
72 | CN(C1CCc2nn(C)c(=O)n2CC1)S(=O)(=O)c1cccc(C#N)c1 (stereo unspecified) | 667
73 | c1ccc(-n2nnnc2-c2cccc3ccccc23)cc1 | 1010
74 | CC(C)Cn1c(=O)c(C(=O)NCc2cccnc2)nc2cccnc21 | 613
75 | O=C(NC1CCN(c2cc(-c3cccs3)[nH]n2)C1)c1ccc(F)cc1F (stereo unspecified) | 718
76 | COc1ccc(C[C@@H]2NC[C@@H](O)[C@@H]2OC(C)=O)cc1 | 600
77 | CCNC(=O)c1cc(N2CCCC2)nc2c(C)cccc12 | 702
78 | CCc1nc2c(NC(=O)c3ccccc3)cccn2n1 | 792
79 | CCc1noc(-c2ccc(-n3ncc(C(=O)N(C)C)c3C)nc2)n1 | 748
80 | CCC(Sc1nc2ccccc2[nH]1)C(=O)Nc1nnc(C)s1 (stereo unspecified) | 689
81 | CSc1c(C)c(SC)n2ccncc12 | 725
82 | COc1ccc(OCc2nnc3sc(-c4ccc5c(c4)OCCO5)nn23)cc1 | 906
83 | Cc1ccc(-c2nc3c(C)cccn3c2Nc2ccccc2C)cc1 | 788
84 | CC(N)C(=O)OC(C)(C)Cc1ccc(Cl)cc1 (stereo unspecified) | 757
85 | Cc1noc(COC2CCN(C(=O)Cc3c[nH]c4ccccc34)CC2)n1 | 724
86 | CCN(CC)c1cc2c(cc1NC(=O)COc1ccc(Cl)cc1)n(C)c(=O)c(=O)n2C | 965
87 | CCOC(=O)c1sc(NC(=O)Cc2ccc3c(c2)OCO3)cc1C | 856
88 | COc1cccc(-c2csc(-c3nnn(-c4ccc(C)c(C)c4)c3N)n2)c1 | 1170
89 | CCn1ccc(C(=O)N2CCCC2c2cccc(F)c2)n1 (stereo unspecified) | 840
90 | O=C(CC(c1ccccc1)c1ccccc1)N(Cc1ccsc1)Cc1ccccn1 | 857
91 | CCCn1c(=O)c(C)nc2cc(-c3noc(/C=C/c4ccc(OC)c(OC)c4)n3)ccc21 | 735
